Source: patent US20150307520A1, “NOVEL HETEROARYL AND HETEROCYCLE COMPOUNDS, COMPOSITIONS AND METHODS THEREOF” (HUTCHISON MEDIPHARMA LIMITED, priority 2012, published 2015)

Experiments:
Format in all cases: biochemical
[1] = biological target: p110δ/p85α (Homo sapiens, UniProt O00329); test: Transcreener KINASE Assay, kinase inhibition of p110δ/p85α; conditions: for PI3Kδ IH % @ 1 uM: 1 uM test compound; for IC50: read-out: PI3Kδ IC50
In short: (§1)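 Recombinant human PI3K heterodimers (p110/p85α) incubated with compound (2% DMSO final) in HEPES/NaCl/EGTA/CHAPS/MgCl2/DTT buffer with 30 uM PIP2 and 10 uM ATP (as added) for 80 min at room temperature.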

[2] = biological target: p110γ (Homo sapiens, UniProt P48736); test: Transcreener KINASE Assay, kinase inhibition of p110γ; conditions: for PI3Kγ IH % @ 1 uM: 1 uM test compound; for IC50: read-out: PI3Kγ IC50
In short: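 Recombinant PI3K isoform complexes were tested in a two-step endpoint ADP-detection assay. Kinase reaction ran 80 min at room temperature, followed by 60 min with ADP detection mix. Far-red competitive fluorescence polarization immunoassay read-out; IC50s fitted from the FP data.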

[3] = biological target: p110α/p85α (Homo sapiens, UniProt P42336); test: Transcreener KINASE Assay, kinase inhibition of p110α/p85α; conditions: 1 uM test compound
Description: PI3K kinases including p110α/p85α, p110δ/p85α and p110γ are purchased from Invitrogen, and p110β/p85α is from Millipore.
Primary screening data and IC50 values are measured using Transcreener™ KINASE Assay (Bellbrook, Catalog #3003-10K). […] It is a universal, homogenous, high throughput screening (HTS) technology using a far-red, competitive fluorescence polarization immunoassay based on the detection of ADP to monitor the activity of enzymes that catalyze group transfer reactions. Briefly, the Transcreener KINASE Assay is designed as a simple two-part, endpoint assay.
In the first step, the 25 ul kinase reaction is performed by preparing a reaction mixture containing 5 ul test compound (2% DMSO final concentration), 10 ul kinase, buffer (50 mM HEPES, 100 mM NaCl, 1 mM EGTA, 0.03% CHAPS, 3 mM MgCl2, and freshly supplemented 1 mM DTT), and 10 ul 30 uM PIP2/10 uM ATP. The plate is sealed and incubated for 80 min at room temperature. Next, 25 ul ADP detection mix is added per well. The plate is sealed again and incubated for 60 min at room temperature, and then measure fluorescence polarization by Tecan Infinite F500 Reader.
Data is analyzed and IC50s are generated using the add-in software for Microsoft Excel, Xlfit™ (version 2.0). IH %=(ADP amount under 2% DMSO-ADP amount under test compound)/ADP amount under 2% DMSO.

[4] = biological target: p110β/p85α (Homo sapiens, UniProt P42338); test: Transcreener KINASE Assay, kinase inhibition of p110β/p85α; conditions: for PI3Kβ IH % @ 1 uM: 1 uM test compound; for IC50: read-out: PI3Kβ IC50
In short: as §1

Sequence of p110δ/p85α (O00329 whole entry): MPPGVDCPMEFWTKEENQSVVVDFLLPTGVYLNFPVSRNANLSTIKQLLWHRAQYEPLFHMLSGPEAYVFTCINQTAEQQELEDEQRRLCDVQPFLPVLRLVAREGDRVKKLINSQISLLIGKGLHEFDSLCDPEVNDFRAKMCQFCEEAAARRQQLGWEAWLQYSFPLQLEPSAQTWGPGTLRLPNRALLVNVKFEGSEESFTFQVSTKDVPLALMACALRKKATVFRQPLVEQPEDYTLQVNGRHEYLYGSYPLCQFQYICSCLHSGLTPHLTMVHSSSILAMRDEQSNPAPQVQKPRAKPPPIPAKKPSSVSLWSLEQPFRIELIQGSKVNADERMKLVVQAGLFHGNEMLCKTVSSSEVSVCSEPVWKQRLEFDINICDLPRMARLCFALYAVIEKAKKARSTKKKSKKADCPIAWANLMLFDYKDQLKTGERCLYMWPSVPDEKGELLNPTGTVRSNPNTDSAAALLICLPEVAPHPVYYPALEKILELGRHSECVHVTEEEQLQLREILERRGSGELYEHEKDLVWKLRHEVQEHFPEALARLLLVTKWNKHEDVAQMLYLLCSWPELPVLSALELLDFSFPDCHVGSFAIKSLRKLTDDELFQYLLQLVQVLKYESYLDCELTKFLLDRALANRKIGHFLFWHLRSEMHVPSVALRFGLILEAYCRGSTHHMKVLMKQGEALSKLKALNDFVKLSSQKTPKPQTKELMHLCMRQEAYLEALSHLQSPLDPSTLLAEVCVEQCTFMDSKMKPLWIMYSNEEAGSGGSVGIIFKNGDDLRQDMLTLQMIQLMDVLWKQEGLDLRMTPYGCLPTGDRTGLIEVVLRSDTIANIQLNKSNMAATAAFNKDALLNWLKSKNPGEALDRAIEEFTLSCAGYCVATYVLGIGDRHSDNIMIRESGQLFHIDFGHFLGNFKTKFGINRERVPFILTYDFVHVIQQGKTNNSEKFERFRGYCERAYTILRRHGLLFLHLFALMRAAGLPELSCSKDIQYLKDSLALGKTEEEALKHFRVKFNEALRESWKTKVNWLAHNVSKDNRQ
Sequence of p110δ/p85α (P27986 whole entry partner): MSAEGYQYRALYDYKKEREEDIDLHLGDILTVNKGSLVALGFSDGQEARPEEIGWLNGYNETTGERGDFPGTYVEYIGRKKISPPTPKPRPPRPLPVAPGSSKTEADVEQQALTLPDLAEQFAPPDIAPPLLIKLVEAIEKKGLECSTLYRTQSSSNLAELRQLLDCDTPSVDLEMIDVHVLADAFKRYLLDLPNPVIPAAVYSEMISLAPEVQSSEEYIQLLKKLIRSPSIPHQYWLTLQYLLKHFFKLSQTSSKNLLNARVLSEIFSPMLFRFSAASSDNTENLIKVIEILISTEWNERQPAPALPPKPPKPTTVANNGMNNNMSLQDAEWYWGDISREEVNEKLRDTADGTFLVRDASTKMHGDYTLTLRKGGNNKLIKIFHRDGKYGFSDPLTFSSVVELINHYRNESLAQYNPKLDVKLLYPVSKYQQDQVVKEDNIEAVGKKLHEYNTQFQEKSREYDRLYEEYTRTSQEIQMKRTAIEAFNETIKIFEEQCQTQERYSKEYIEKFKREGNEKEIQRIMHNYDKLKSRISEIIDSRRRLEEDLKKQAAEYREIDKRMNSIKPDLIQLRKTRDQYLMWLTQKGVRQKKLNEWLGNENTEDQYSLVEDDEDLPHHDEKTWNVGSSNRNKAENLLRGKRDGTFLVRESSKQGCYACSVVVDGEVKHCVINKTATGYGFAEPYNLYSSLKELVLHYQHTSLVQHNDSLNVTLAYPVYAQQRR
Sequence of p110γ (P48736 whole entry, canonical isoform): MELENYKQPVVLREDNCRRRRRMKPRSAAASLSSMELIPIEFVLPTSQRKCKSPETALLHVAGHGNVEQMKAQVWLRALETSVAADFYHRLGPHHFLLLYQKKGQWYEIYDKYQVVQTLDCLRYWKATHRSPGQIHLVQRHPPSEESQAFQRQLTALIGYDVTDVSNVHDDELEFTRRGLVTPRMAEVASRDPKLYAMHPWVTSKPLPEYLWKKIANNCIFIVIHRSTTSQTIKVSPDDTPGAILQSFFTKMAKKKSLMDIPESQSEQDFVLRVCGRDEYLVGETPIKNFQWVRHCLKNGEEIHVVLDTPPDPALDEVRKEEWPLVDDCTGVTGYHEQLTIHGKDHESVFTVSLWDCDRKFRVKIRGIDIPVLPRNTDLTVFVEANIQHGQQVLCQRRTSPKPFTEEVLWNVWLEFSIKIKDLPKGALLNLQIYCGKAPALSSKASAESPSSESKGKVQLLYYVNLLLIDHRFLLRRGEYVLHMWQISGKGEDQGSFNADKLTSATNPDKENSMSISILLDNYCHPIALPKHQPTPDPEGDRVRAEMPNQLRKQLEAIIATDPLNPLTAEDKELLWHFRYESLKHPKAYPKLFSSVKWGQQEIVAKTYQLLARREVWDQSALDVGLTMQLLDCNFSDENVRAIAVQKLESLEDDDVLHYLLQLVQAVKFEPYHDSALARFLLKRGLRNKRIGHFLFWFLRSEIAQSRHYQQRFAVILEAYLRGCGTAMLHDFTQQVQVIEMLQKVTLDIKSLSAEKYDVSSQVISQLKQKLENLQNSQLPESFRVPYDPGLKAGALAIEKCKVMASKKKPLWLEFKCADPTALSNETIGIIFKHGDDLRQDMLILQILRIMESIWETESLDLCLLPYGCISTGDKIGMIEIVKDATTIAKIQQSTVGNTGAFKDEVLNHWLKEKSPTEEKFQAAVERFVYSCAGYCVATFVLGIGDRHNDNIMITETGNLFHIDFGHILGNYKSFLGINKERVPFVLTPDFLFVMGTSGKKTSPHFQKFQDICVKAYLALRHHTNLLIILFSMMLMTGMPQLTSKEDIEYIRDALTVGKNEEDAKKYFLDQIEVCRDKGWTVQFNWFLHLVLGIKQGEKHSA
Sequence of p110α/p85α (P42336 whole entry): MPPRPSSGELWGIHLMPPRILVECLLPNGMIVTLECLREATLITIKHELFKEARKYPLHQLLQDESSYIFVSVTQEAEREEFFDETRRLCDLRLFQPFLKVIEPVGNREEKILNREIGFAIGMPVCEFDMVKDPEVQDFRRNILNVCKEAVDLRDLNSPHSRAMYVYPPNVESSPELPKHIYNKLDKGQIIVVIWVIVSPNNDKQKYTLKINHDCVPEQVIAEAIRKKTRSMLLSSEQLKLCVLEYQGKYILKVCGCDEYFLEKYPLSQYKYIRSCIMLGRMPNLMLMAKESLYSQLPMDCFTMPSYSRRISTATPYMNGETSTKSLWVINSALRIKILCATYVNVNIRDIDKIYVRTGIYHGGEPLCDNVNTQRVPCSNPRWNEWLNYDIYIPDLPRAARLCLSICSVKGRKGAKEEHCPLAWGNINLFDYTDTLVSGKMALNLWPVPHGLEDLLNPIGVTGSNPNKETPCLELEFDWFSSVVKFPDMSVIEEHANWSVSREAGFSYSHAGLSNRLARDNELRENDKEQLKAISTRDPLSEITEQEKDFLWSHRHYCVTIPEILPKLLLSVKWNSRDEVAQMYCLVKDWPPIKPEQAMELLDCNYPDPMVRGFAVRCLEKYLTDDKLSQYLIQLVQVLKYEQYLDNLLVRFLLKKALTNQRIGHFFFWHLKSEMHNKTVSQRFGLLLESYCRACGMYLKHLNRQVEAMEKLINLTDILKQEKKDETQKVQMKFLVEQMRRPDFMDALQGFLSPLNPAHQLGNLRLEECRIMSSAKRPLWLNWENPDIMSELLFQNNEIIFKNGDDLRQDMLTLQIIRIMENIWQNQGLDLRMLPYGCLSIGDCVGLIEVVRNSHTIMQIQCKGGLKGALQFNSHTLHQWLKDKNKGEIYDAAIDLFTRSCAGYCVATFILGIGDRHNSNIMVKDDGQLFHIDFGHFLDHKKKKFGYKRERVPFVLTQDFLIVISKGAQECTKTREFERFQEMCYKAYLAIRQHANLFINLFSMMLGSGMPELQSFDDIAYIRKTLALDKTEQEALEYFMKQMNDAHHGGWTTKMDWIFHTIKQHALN
Sequence of p110α/p85α (P27986 whole entry partner): as the sequence (P27986 whole entry partner) above

SMILES	PI3Kδ IH % @ 1 uM [1]	IC50 [1]	PI3Kγ IH % @ 1 uM [2]	IC50 [2]	PI3Kα IH % @ 1 uM [3]	PI3Kβ IH % @ 1 uM [4]	IC50 [4]
Cc1ccn2nc([C@@H]3CCCN3c3nc(N)nc4[nH]cnc34)n(-c3ccccc3)c(=O)c12 [Compound 44]	>100%	1 nM	95.2%	5 nM	46.7%	74.3%	302 nM
N#Cc1c[nH]c2ncnc(N3CCC[C@H]3c3nn4ccc(Cl)c4c(=O)n3Cc3ccccc3)c12 [Compound 62]	95.4%	39 nM	>100%	39 nM	7.1%	42.2%	
CC(C)Cn1c([C@@H]2CCCN2c2ncnc3[nH]cc(C#N)c23)nn2ccc(Cl)c2c1=O [Compound 64]	98.9%	3 nM	89.9%	41 nM	32.6%	78.8%	251 nM
N#Cc1c[nH]c2ncnc(N3CCC[C@H]3c3nn4ccc(Cl)c4c(=O)n3Cc3ccccn3)c12 [Compound 65]	>100%	14 nM	>100%	78 nM	52.6%	50.6%	
N#Cc1c[nH]c2ncnc(N3CCC[C@H]3c3nn4ccc(Cl)c4c(=O)n3Cc3cccnc3)c12 [Compound 66]	>100%	12 nM	>100%	14 nM	75.6%	63.6%	
N#Cc1c(N)ncnc1N1CCC[C@H]1c1nn2ccc(Cl)c2c(=O)n1Cc1ccccn1 [Compound 69]	99.9%	9 nM	68.8%		13.0%	57.8%	
N#Cc1c[nH]c2ncnc(N3C[C@H](O)C[C@H]3c3nn4ccc(Cl)c4c(=O)n3-c3ccccc3)c12 [Compound 70, 4-((2S,4R)-2-(5-chloro-4-oxo-3-phenyl-3,4-dihydropyrrolo[2,1-f][1,2,4]triazin-2-yl)-4-hydroxypyrrolidin-1-yl)-7H-pyrrolo[2,3-d]pyrimidine-5-carbonitrile]	99.1%	3 nM	>100%	25 nM	41.6%	92.1%	220 nM
O=c1c2c(Cl)ccn2nc([C@@H]2C[C@H](F)CN2c2ncnc3[nH]cnc23)n1-c1ccccc1 [Compound 73, 5-chloro-2-((2S,4S)-4-fluoro-1-(9H-purin-6-yl)pyrrolidin-2-yl)-3-phenylpyrrolo[2,1-f][1,2,4]triazin-4(3H)-one]	>100%	3 nM	92.7%		33.6%	69.5%	420 nM
CC(Nc1nc(N)ncc1C(F)(F)F)c1cn2ccc(Cl)c2c(=O)n1-c1cccc(F)c1 (centres unmarked) [Compound 84]	>100%	4 nM	75.9%	32 nM	−3.5%	59.3%	
